Source: ChEMBL document CHEMBL1124314, “Development of phosphonate derivatives of gadolinium chelates for NMR imaging of calcified soft tissues” (J Med Chem, 1989)
One block for each molecule: values may come before it.

How the values were obtained:
[1] = Ratio of uptake of [GD] in bone 1 hr post injection with 0.002 to that of blood; format: functional
[2] = Ratio of uptake of [GD] in bone 1 hr post injection with 0.01 to that of muscle; format: functional
Rattus norvegicus [3] = organism: Rattus norvegicus; assay: Biodistribution in normal rat bone in the presence of 0.005 M Gd/0.01 M lig at 2 hr; format: ADME, organism-based, Bone element; details: in vivo
Rattus norvegicus [4] = organism: Rattus norvegicus; assay: Biodistribution in normal rat muscle in the presence of 0.01 M Gd/0.05 M lig; format: ADME, organism-based, Muscle tissue; details: in vivo
[5] = Ratio of uptake of [GD] in bone 1 hr post injection with 0.025 to that of blood; format: functional
Rattus norvegicus [6] = organism: Rattus norvegicus; assay: Biodistribution in normal rat bone in the presence of NAC Gd 0.01 M lig at 2 hr; format: ADME, organism-based, Bone element; details: in vivo
Rattus norvegicus [7] = organism: Rattus norvegicus; assay: Biodistribution in normal rat bone in the presence of 0.01 M Gd/0.05 M lig; format: ADME, organism-based, Bone element; details: in vivo
Rattus norvegicus [8] = organism: Rattus norvegicus; assay: Biodistribution in normal rat muscle in the presence of 0.005 M Gd/0.01 M lig at 2 hr; format: ADME, organism-based, Muscle tissue; details: in vivo
[9] = Ratio of uptake of [GD] in bone 1 hr post injection with 0.025 to that of muscle; format: functional
[10] = Ratio of uptake of [GD] in bone 1 hr post injection with NCA GD dose to that of blood; format: functional
Rattus norvegicus [11] = organism: Rattus norvegicus; assay: Biodistribution in normal rat muscle in the presence of NAC Gd 0.01 M lig at 2 hr; format: ADME, organism-based, Muscle tissue; details: in vivo
Rattus norvegicus [12] = organism: Rattus norvegicus; assay: Uptake of [GD] in bone 1 hr post injection with 0.025 of the compound; format: functional, Bone element
Rattus norvegicus [13] = organism: Rattus norvegicus; assay: Biodistribution in normal rat liver in the presence of 0.01 M Gd/0.05 M lig; format: ADME, organism-based; details: in vivo
Rattus norvegicus [14] = organism: Rattus norvegicus; assay: Biodistribution in normal rat heart in the presence of 0.005 M Gd/0.01 M lig at 2 hr; format: ADME, organism-based; details: in vivo
Rattus norvegicus [15] = organism: Rattus norvegicus; assay: Biodistribution in normal rat spleen in the presence of NAC Gd 0.01 M lig at 2 hr; format: ADME, organism-based; details: in vivo
Rattus norvegicus [16] = organism: Rattus norvegicus; assay: Biodistribution in normal rat heart in the presence of NAC Gd 0.01 M lig at 2 hr; format: ADME, organism-based; details: in vivo
Rattus norvegicus [17] = organism: Rattus norvegicus; assay: Biodistribution in normal rat blood in the presence of NAC Gd 0.01 M lig at 2 hr; format: ADME, organism-based; details: in vivo
Rattus norvegicus [18] = organism: Rattus norvegicus; assay: Biodistribution in normal rat liver in the presence of 0.005 M Gd/0.01 M lig at 2 hr; format: ADME, organism-based; details: in vivo
Rattus norvegicus [19] = organism: Rattus norvegicus; assay: Biodistribution in normal rat lung in the presence of 0.01 M Gd/0.05 M lig; format: ADME, organism-based; details: in vivo
Rattus norvegicus [20] = organism: Rattus norvegicus; assay: Uptake of [GD] in bone 1 hr post injection with 0.002 of the compound; format: functional, Bone element
Rattus norvegicus [21] = organism: Rattus norvegicus; assay: Biodistribution in normal rat blood in the presence of 0.005 M Gd/0.01 M lig at 2 hr; format: ADME, organism-based; details: in vivo
Rattus norvegicus [22] = organism: Rattus norvegicus; assay: Uptake of [GD] in bone 1 h post injection with 0.01 of the compound; format: functional, Bone element
Rattus norvegicus [23] = organism: Rattus norvegicus; assay: Biodistribution in normal rat liver in the presence of NAC Gd 0.01 M lig at 2 hr; format: ADME, organism-based; details: in vivo
Rattus norvegicus [24] = organism: Rattus norvegicus; assay: Biodistribution in normal rat spleen in the presence of 0.01 M Gd/0.05 M lig; format: ADME, organism-based; details: in vivo
Rattus norvegicus [25] = organism: Rattus norvegicus; assay: Biodistribution in normal rat lung in the presence of 0.005 M Gd/0.01 M lig at 2 hr; format: ADME, organism-based; details: in vivo
[26] = Ratio of uptake of [GD] in bone 1 hr post injection with 0.01 to that of blood; format: functional
Rattus norvegicus [27] = organism: Rattus norvegicus; assay: Biodistribution in normal rat kidney in the presence of 0.01 M Gd/0.05 M lig; format: ADME, organism-based; details: in vivo
Rattus norvegicus [28] = organism: Rattus norvegicus; assay: Uptake of [GD] in bone 1 hr post injection with NCA GD dose; format: functional, Bone element
Rattus norvegicus [29] = organism: Rattus norvegicus; assay: Biodistribution in normal rat heart in the presence of 0.01 M Gd/0.05 M lig; format: ADME, organism-based; details: in vivo
[30] = Uptake of [GD] in bone 1 hr post injection with NCA GD dose to that of muscle; format: functional, Muscle tissue
Rattus norvegicus [31] = organism: Rattus norvegicus; assay: Biodistribution in normal rat kidney in the presence of 0.005 M Gd/0.01 M lig at 2 hr; format: ADME, organism-based; details: in vivo
[32] = Ratio of uptake of [GD] in bone 1 hr post injection with 0.002 to that of muscle; format: functional
Rattus norvegicus [33] = organism: Rattus norvegicus; assay: Biodistribution in normal rat kidney in the presence of NAC Gd 0.01 M lig at 2 hr; format: ADME, organism-based; details: in vivo
Rattus norvegicus [34] = organism: Rattus norvegicus; assay: Biodistribution in normal rat spleen in the presence of 0.005 M Gd/0.01 M lig at 2 hr; format: ADME, organism-based; details: in vivo
Rattus norvegicus [35] = organism: Rattus norvegicus; assay: Biodistribution in normal rat blood in the presence of 0.01 M Gd/0.05 M lig; format: ADME, organism-based; details: in vivo
Rattus norvegicus [36] = organism: Rattus norvegicus; assay: Biodistribution in normal rat lung in the presence of NAC Gd 0.01 M lig at 2 hr; format: ADME, organism-based; details: in vivo
Rattus norvegicus [37] = organism: Rattus norvegicus; assay: Uptake of [GD] in bone 1 hr post injection with 0.005 of the compound; format: functional, Bone element
[38] = Ratio of uptake of [GD] in bone 1 hr post injection with 0.10 to that of blood; format: functional
[39] = Ratio of uptake of [GD] in bone 1 hr post injection with 0.20 to that of muscle; format: functional
Rattus norvegicus [40] = organism: Rattus norvegicus; assay: Uptake of [GD] in bone 1 hr post injection with 0.10 of the compound; format: functional, Bone element
[41] = Ratio of uptake of [GD] in bone 1 hr post injection with 0.05 to that of muscle; format: functional
[42] = Ratio of uptake of [GD] in bone 1 hr post injection with 0.005 to that of muscle; format: functional
[43] = Ratio of uptake of [GD] in bone 1 hr post injection with 0.02 to that of muscle; format: functional
Rattus norvegicus [44] = organism: Rattus norvegicus; assay: Uptake of [GD] in bone 1 hr post injection with 0.20 of the compound; format: functional, Bone element
[45] = Ratio of uptake of [GD] in bone 1 hr post injection with 0.20 to that of blood; format: functional
[46] = Ratio of uptake of [GD] in bone 1 hr post injection with 0.10 to that of muscle; format: functional
Rattus norvegicus [47] = organism: Rattus norvegicus; assay: Uptake of [GD] in bone 1 hr post injection with 0.02 of the compound; format: functional, Bone element
Rattus norvegicus [48] = organism: Rattus norvegicus; assay: Uptake of [GD] in bone 1 hr post injection with 0.05 of the compound; format: functional, Bone element
[49] = Ratio of uptake of [GD] in bone 1 hr post injection with 0.05 to that of blood; format: functional
[50] = Ratio of uptake of [GD] in bone 1 hr post injection with 0.02 to that of blood; format: functional
[51] = Ratio of uptake of [GD] in bone 1 hr post injection with 0.005 to that of blood; format: functional

ID/organ (Rattus norvegicus [3]): 42.9%
ID/organ (Rattus norvegicus [4]): 2%
ID/organ (Rattus norvegicus [6]): 47%
ID/organ (Rattus norvegicus [7]): 35%
ID/organ (Rattus norvegicus [8]): 2.4%
ID/organ (Rattus norvegicus [11]): 0.3%
ID/organ (Rattus norvegicus [13]): 0.5%
ID/organ (Rattus norvegicus [14]): 0.04%
ID/organ (Rattus norvegicus [15]): 0.004%
ID/organ (Rattus norvegicus [16]): 0.004%
ID/organ (Rattus norvegicus [17]): 0.045%
ID/organ (Rattus norvegicus [18]): 1.6%
ID/organ (Rattus norvegicus [19]): 0.09%
ID/organ (Rattus norvegicus [21]): 1.7%
ID/organ (Rattus norvegicus [23]): 0.22%
ID/organ (Rattus norvegicus [24]): 0.009%
ID/organ (Rattus norvegicus [25]): 0.1%
ID/organ (Rattus norvegicus [27]): 0.38%
ID/organ (Rattus norvegicus [29]): 0.13%
ID/organ (Rattus norvegicus [31]): 0.4%
ID/organ (Rattus norvegicus [33]): 0.29%
ID/organ (Rattus norvegicus [34]): 0.02%
ID/organ (Rattus norvegicus [35]): 0.7%
ID/organ (Rattus norvegicus [36]): 0.02%
Structure (SMILES): O=P(O)(O)C(N(CCN(C(P(=O)(O)O)P(=O)(O)O)C(P(=O)(O)O)P(=O)(O)O)C(P(=O)(O)O)P(=O)(O)O)P(=O)(O)O
Ratio [1]: 73.3
Ratio [2]: 27.7
Ratio [5]: 20.4
Ratio [9]: 12.4
Ratio [10]: 91.8
ID (Rattus norvegicus [12]): 35.4%
ID (Rattus norvegicus [20]): 53.1%
ID (Rattus norvegicus [22]): 50.1%
Ratio [26]: 37.3
ID (Rattus norvegicus [28]): 54.8%
Ratio [30]: 51.2
Ratio [32]: 43.5

Structure (SMILES): O=C(O)CN(CCN(CC(=O)O)CC(=O)O)CCN(CC(=O)O)CC(=O)NCCC(O)P(=O)(O)OP(=O)(O)O (centres undefined)
ID (Rattus norvegicus [37]): 44.4%
Ratio [38]: 25.7
Ratio [39]: 8.08
Ratio [10]: 108
ID (Rattus norvegicus [40]): 16.1%
Ratio [41]: 19.6
Ratio [42]: 52.7
Ratio [43]: 20.1
ID (Rattus norvegicus [44]): 13.5%
Ratio [45]: 13.9
Ratio [46]: 12.5
ID (Rattus norvegicus [47]): 28.9%
ID (Rattus norvegicus [48]): 21.2%
Ratio [49]: 29.8
ID (Rattus norvegicus [28]): 57%
Ratio [30]: 70.6
Ratio [50]: 34.9
Ratio [51]: 110.4
